Experimental data taken from patent EP3731817B1, “PHARMACEUTICAL COMPOSITION OF LENALIDOMIDE PHARMACEUTICALLY ACCEPTABLE ACID ADDITION SALT” (KRKA, d.d., Novo mesto, priority 2017, dated 2019).
Counter-ions that a name gives are not always drawn.

Key:
[1] = Stability testing: physical form (disproportionation) monitored by X-ray powder diffraction after storage in vials; format: physicochemical; conditions: physical form found by XRPD after storage in vials
Description: The binary mixtures and pharmaceutical compositions were stored in vials at 40°C/75%RH for 1 month or at 50° C 75% RH for 14 days. Disproportionation effect was monitored by X-ray powder diffraction pattern.
X-ray powder diffraction patterns were obtained by a PANalytical PW3040/60 X'Pert PRO diffractometer using CuKα radiation of 1,541874.
(§1) Lenalidomide hydrochloride and the all the excipients with respect to the composition were weighed into the glass vial. Gelatine capsule were added into the vials. The vials were then closed with the stopper and gently mixed to form a homogenous mixture. The vials were subjected to the stress conditions.
as §1, with “hydrochloride in the form of monohydrate form VII” for “hydrochloride”, “vials. Vials” for “vials. The vials”
The capsules were stored in vials at 40°C/75%RH for 1 month. Physical stability of the samples was monitored by X-ray powder diffraction pattern. As evident from the results, the physical form remains the same, a disproportionation effect was not observed.

[2] = cited from earlier work

SMILES: Nc1cccc2c1CN(C1CCC(=O)NC1=O)C2=O (stereo not drawn) [API, Lenalidomid HCl·H2O]
- Stability testing 1 month at 40°C/75%RH [1]: HCl salt

SMILES: Nc1cccc2c1CN(C1CCC(=O)NC1=O)C2=O (stereo not drawn) [lenalidomide, (3-(4' aminoisoindoline-1'-one)-1-piperidine-2,6-dione)]
- dissociation constant pKa1 ([2]; primary amine group): 2.31
- pKa2 ([2]; secondary amine group): 11.6
